Read-outs that look alike come from different tables or passages of the source.
Legend:
HIV integrase E92Q/N155H = target: T1, HIV integrase E92Q/N155H (Human immunodeficiency virus type 1 group M subtype B, UniProt P12497, E1239Q/N1302H); experiment: Strand transfer assay (enzyme assay), E92Q/N155H mutant; format: biochemical, HIV-1
T1 construct: The integrase coding region was then subject to PCR and cloned into a bacterial expression vector; made in house
Excerpt: (§1) HIV integrase was mutated within a shuttle vector (pGEMNLHE) containing the majority of the HIV-1 gag and pol sequence using site directed mutagenesis to generate integrase sequences that have been published as conferring resistance to published integrase inhibitors. These include, but are not limited to, mutations such as Q148K, Q148H/G140S and N155H/E92Q. The integrase coding region was then subject to PCR and cloned into a bacterial expression vector. The specific introduction of desired mutation(s) was confirmed by sequence analysis. Proteins were expressed, purified and used in strand transfer assays.
(§2) A strand transfer assay procedure similar to that published (Ovenden et al. Phytochemistry. 2004 December; 65(24):3255-9.) is used. Briefly, 400 ng of the enzyme, wild type or drug resistant mutant, is mixed with the compound to be tested and incubated with 30 nM substrate DNA. The substrate DNA is designed to mimic HIV DNA termini that has undergone 3′ end processing, and consists of the annealed U5 LTR sequence oligonucleotides tagged with Digoxigenin (DIG; 5′-[…]-DIG-3′) or biotin (5′-Bio-[…]-3′) so that each substrate has either a DIG or Bio tag on opposite strands. Reactions are carried out for 1 hr at 37° C. Products generated as a result of strand transfer activity are bound to streptavidin plates and detected using anti-DIG-alkaline phosphatase conjugate and p-nitro phenyl phosphate substrate.
(§3) Both the Phenosense assay and the Enzyme assay give substantially the same activity values for any particular compound and enzyme pair. The activity of one compound in one assay can therefore be directly compared to the activity of a second compound in the other assay.

HIV integrase WT = target: T2, HIV integrase WT (Human immunodeficiency virus type 1 group M subtype B, UniProt P12497); experiment: Strand transfer assay (enzyme assay), wild type; format: biochemical, HIV-1
T2 construct: The integrase coding region was then subject to PCR and cloned into a bacterial expression vector; made in house
Excerpt: as §1, §2, §3

[1] = target: T3, HIV integrase G140S/Q148H (Human immunodeficiency virus type 1 group M subtype B, UniProt P12497, G1287S/Q1295H); experiment: Strand transfer assay (enzyme assay), G140S/Q148H mutant; format: biochemical, HIV-1
T3 construct: The integrase coding region was then subject to PCR and cloned into a bacterial expression vector; made in house
Excerpt: as §1, §2, §3

[2] = test system: HIV variant G140S Q148H integrase; experiment: Phenosense (PhenoScreen) assay, G140S Q148H variant; format: cell-based; settings: Human immunodeficiency virus 1, read-out: Phenosense assay G140S Q148H activity value
Excerpt: (§4) Monogram Bioscience' PhenoScreen assay allows the evaluation of integrase inhibitors for activity against a variety of HIV variants. The assay uses virus generated from 2 DNA constructs; one containing the HIV LTR, gag and pol regions, as well as a luciferase reporter gene in place of the viral envelope genes, and a second DNA construct containing the amphotrophic murine leukemia virus (A-MLV) envelope gene required to pseudotype virions and render them capable of entry into a target cell. Viruses generated using these constructs by transfection into a producer cell line such as 293T are capable of one-round of infection only. Successful integration events are directly proportional to the levels of luciferase expression 48-72 h after infection.
(§5) The viral variants chosen by Avexa Ltd. to screen their in-house integration inhibitors against consist of mutations within the viral integrase enzyme known to confer resistance to a number of known integration inhibitors published in the literature. In particular, the viral variants containing the Q148H/G140S double mutation in integrase, and the N155H/E92Q double mutation in integrase, represent two of the more common viruses identified to arise in patients that are failing treatment with Isentress (Raltegravir, MK-0518).
as §3

[3] = test system: HIV variant Y143R integrase; experiment: Phenosense (PhenoScreen) assay, Y143R variant; format: cell-based; settings: Human immunodeficiency virus 1, read-out: Phenosense assay Y143R activity value
Excerpt: as §4, §5, §3

HIV WT integrase = experiment: Phenosense (PhenoScreen) assay, wild type virus; format: cell-based; settings: Human immunodeficiency virus 1, read-out: Phenosense assay WT activity value
Excerpt: as §4, §5, §3

[4] = test system: HIV variant T125K F121Y integrase; experiment: Phenosense (PhenoScreen) assay, T125K F121Y variant; format: cell-based; settings: Human immunodeficiency virus 1, read-out: Phenosense assay T125K F121Y activity value
Excerpt: as §4, §5, §3

[5] = test system: HIV variant T661 S153Y integrase; experiment: Phenosense (PhenoScreen) assay, T661 S153Y variant; format: cell-based; settings: Human immunodeficiency virus 1, read-out: Phenosense assay T661 S153Y activity value
Excerpt: as §4, §5, §3

[6] = test system: HIV variant E92Q N155H integrase; experiment: Phenosense (PhenoScreen) assay, E92Q N155H variant; format: cell-based; settings: Human immunodeficiency virus 1, read-out: Phenosense assay E92Q N155H activity value
Excerpt: as §4, §5, §3

[7] = test system: HIV-1 reporter virus, integrase Q148H/G140S (QHGS); experiment: Luciferase reporter virus infectivity assay, QHGS mutant; format: cell-based; settings: Human immunodeficiency virus 1, HEK-293T
Excerpt: (§6) Infectivity assays using reporter viruses derived from lentiviral vectors capable of a single round of infection were used to determine the activity (EC50) of compounds. The DNA used to generate viruses for infection was the full-length HIV-1 genome which had been envelope-deleted. In addition, a reporter gene (the firefly luciferase gene from Photinus pyralis) was cloned into the nef region of the HIV backbone for ease of assay readout. […]. Culture supernatants containing VSV-G pseudotyped virions were harvested 64 h post transfection, clarified by centrifugation to remove cell debris, and frozen at −70° C. until use.
(§7) HIV integrase was mutated within a shuttle vector (pGEM) containing the majority of the HIV-1 gag and pol sequence using site-directed mutagenesis to generate sequences that are known to confer resistance to published integrase inhibitors. These include but are not limited to mutations such as Q148H/G140S (in tables 2 and 3 # QHGS), N155H/E92Q (in table 2 # NHEQ), F121Y/T124K (in table 2 FYTK), Y143R (in table 2 # Y143R) and the triple mutant Q148K/G140A/E138A. (in table 2 # QKGAEA). The mutated integrase coding region within the shuttle vector was sequence verified, and then exchanged for the wild-type (WT) coding sequence in the reporter virus DNA backbone.
(§8) 293T cells were plated out at 12000 cells per well in CellView 96-well cell culture plates (Invitrogen) 16 h prior to compound addition. Compounds were preincubated with cells for 4 h at 37° C. prior to the addition of virus sufficient to generate approximately 10000 Luciferase light units (as measured by the Victor Wallace luminometer) upon assaying using the Bright-Glo™ reagent (Promega) according to the manufacturer's instructions at 48 h post infection.

[8] = test system: HIV-1 reporter virus, wild-type (WT) integrase; experiment: Luciferase reporter virus infectivity assay, WT; format: cell-based; settings: Human immunodeficiency virus 1, HEK-293T, 48 h, read-out: Luciferase assay results WT (EC50)
Excerpt: as §6, §7, §8

[9] = read-out: Luciferase assay results QHGS (EC50)
[10] = read-out: EC50 against the QHGS mutant

Cn1ccn2c(=O)c(O)c(-c3ncc(Cc4ccc(F)cc4)s3)nc12
IC50 (HIV integrase E92Q/N155H): 100 to 1000 nM | IC50 (HIV integrase WT): 1 to 100 nM | IC50 [1]: 1 to 100 nM

Cn1ccn2c(=O)c(O)c(-c3ncc(Cc4ccc(Cl)cc4)s3)nc12
IC50 (HIV integrase E92Q/N155H): 100 to 1000 nM | IC50 (HIV integrase WT): 1 to 100 nM | IC50 [1]: 100 to 1000 nM

Cn1ccn2c(=O)c(O)c(-c3ncc(Cc4ccc(Cl)c(Cl)c4)s3)nc12
IC50 (HIV integrase E92Q/N155H): 100 to 1000 nM | IC50 (HIV integrase WT): 1 to 100 nM | IC50 [1]: 100 to 1000 nM

Cn1ccn2c(=O)c(O)c(-c3ncc(Cc4ccc(F)c(Cl)c4)s3)nc12
IC50 (HIV integrase E92Q/N155H): 100 to 1000 nM | IC50 (HIV integrase WT): 1 to 100 nM | IC50 [1]: 100 to 1000 nM

Cn1ccn2c(=O)c(O)c(C(=O)NCc3ccc(Cl)c(Cl)c3)nc12
EC50 [2]: > 10000 nM | IC50 (HIV integrase WT): 100 to 1000 nM | EC50 [3]: 1 to 100 nM | EC50 (HIV WT integrase): 1 to 100 nM | EC50 [4]: 1000 to 10000 nM | EC50 [5]: 100 to 1000 nM | EC50 [6]: > 10000 nM

C[C@H]1CN(C(=O)Cn2ccn3c(=O)c(O)c(-c4ncc(Cc5ccc(Cl)c(Cl)c5)s4)nc23)C[C@H](C)O1
EC50 [7, 9]: 100 to 1000 nM | EC50 [8]: 1 to 100 nM

O=C(Cn1ccn2c(=O)c(O)c(-c3ncc(Cc4ccc(F)cc4)s3)nc12)N1CCCCC1
EC50 [7, 9]: > 1000 nM | EC50 [8]: 1 to 100 nM

CC1CN(C(=O)C(C)n2ccn3c(=O)c(O)c(-c4ncc(Cc5ccc(F)cc5)s4)nc23)CC(C)O1 (stereo not shown) [Example 184, 1-[2-(2,6-Dimethyl-morpholin-4-yl)-1-methyl-2-oxo-ethyl]-7-[5-(4-fluoro-benzyl)-thiazol-2-yl]-6-hydroxy-1H-imidazo[1,2-a]pyrimidin-5-one]
EC50 [7, 10]: 1000 to 10000 nM

O=C(Cn1ccn2c(=O)c(O)c(-c3ncc(Cc4ccc(F)cc4)s3)nc12)N1CC2CCC1C2 (stereo not shown) [Example 185, 1-[2-(2-Aza-bicyclo[2.2.1]hept-2-yl)-2-oxo-ethyl]-7-[5-(4-fluoro-benzyl)-thiazol-2-yl]-6-hydroxy-1H-imidazo[1,2-a]pyrimidin-5-one]
EC50 [7, 10]: 1000 to 10000 nM

C[C@@H]1CN(C(=O)Cn2cc(N3CCCS3(=O)=O)n3c(=O)c(O)c(C(=O)NCc4ccc(F)cc4S(=O)(=O)N(C)C)nc23)C[C@@H](C)O1 [Example 186, 1-[2-((2R,6R)-2,6-Dimethyl-morpholin-4-yl)-2-oxo-ethyl]-3-(1,1-dioxo-1lambda*6*-isothiazolidin-2-yl)-6-hydroxy-5-oxo-1,5-dihydro-imidazo[1,2-a]pyrimidine-7-carboxylic acid 2-dimethylsulfamoyl-4-fluoro-benzylamide]
EC50 [7, 10]: < 500 nM

CC1CC(C)CN(C(=O)Cn2cc(N3CCCS3(=O)=O)n3c(=O)c(O)c(C(=O)NCc4ccc(F)cc4S(=O)(=O)N(C)C)nc23)C1 (stereo not shown) [Example 187, 1-[2-(3,5-Dimethyl-piperidin-1-yl)-2-oxo-ethyl]-3-(1,1-dioxo-1lambda*6*-isothiazolidin-2-yl)-6-hydroxy-5-oxo-1,5-dihydro-imidazo[1,2-a]pyrimidine-7-carboxylic acid 2-dimethylsulfamoyl-4-fluoro-benzylamide]
EC50 [7, 10]: < 500 nM

CN(C)S(=O)(=O)c1cc(F)ccc1CNC(=O)c1nc2n(CC(=O)N3CCCCC3)cc(N3CCCS3(=O)=O)n2c(=O)c1O [Example 188, 3-(1,1-Dioxo-1lambda*6*-isothiazolidin-2-yl)-6-hydroxy-5-oxo-1-(2-oxo-2-piperidin-1-yl-ethyl)-1,5-dihydro-imidazo[1,2-a]pyrimidine-7-carboxylic acid 2-dimethylsulfamoyl-4-fluoro-benzylamide]
EC50 [7, 10]: < 500 nM

CC1CCCCN1C(=O)Cn1cc(N2CCCS2(=O)=O)n2c(=O)c(O)c(C(=O)NCc3ccc(F)cc3S(=O)(=O)N(C)C)nc12 (stereo not shown) [Example 189, 3-(1,1-Dioxo-1lambda*6*-isothiazolidin-2-yl)-6-hydroxy-1-[2-(2-methyl-piperidin-1-yl)-2-oxo-ethyl]-5-oxo-1,5-dihydro-imidazo[1,2-a]pyrimidine-7-carboxylic acid 2-dimethylsulfamoyl-4-fluoro-benzylamide]
EC50 [7, 10]: 500 to 1000 nM

CC1CC(C)CN(C(=O)Cn2cc(N3CCCS3(=O)=O)n3c(=O)c(O)c(C(=O)NCc4ccc(Cl)c(Cl)c4)nc23)C1 (stereo not shown) [Example 190, 1-[2-(3,5-Dimethyl-piperidin-1-yl)-2-oxo-ethyl]-3-(1,1-dioxo-1lambda*6*-isothiazolidin-2-yl)-6-hydroxy-5-oxo-1,5-dihydro-imidazo[1,2-a]pyrimidine-7-carboxylic acid 3,4-dichloro-benzylamide]
EC50 [7, 10]: 500 to 1000 nM

CSCc1cn(CC(=O)N2CC(C)CC(C)C2)c2nc(C(=O)NCc3ccc(Cl)c(Cl)c3)c(O)c(=O)n12 (stereo not shown) [Example 191, 1-[2-(3,5-Dimethyl-piperidin-1-yl)-2-oxo-ethyl]-6-hydroxy-3-methylsulfanylmethyl-5-oxo-1,5-dihydro-imidazo[1,2-a]pyrimidine-7-carboxylic acid 3,4-dichloro-benzylamide]
EC50 [7, 10]: 1000 to 10000 nM

CSCc1cn(CC(=O)N2CC(C)CC(C)C2)c2nc(C(=O)NCc3ccc(F)cc3S(=O)(=O)N(C)C)c(O)c(=O)n12 (stereo not shown) [Example 192, 1-[2-(3,5-Dimethyl-piperidin-1-yl)-2-oxo-ethyl]-6-hydroxy-3-methylsulfanylmethyl-5-oxo-1,5-dihydro-imidazo[1,2-a]pyrimidine-7-carboxylic acid 2-dimethylsulfamoyl-4-fluoro-benzylamide]
EC50 [7, 10]: < 500 nM

CC1CC(C)CN(C(=O)Cn2cc(CS(C)(=O)=O)n3c(=O)c(O)c(C(=O)NCc4ccc(Cl)c(Cl)c4)nc23)C1 (stereo not shown) [Example 193, 1-[2-(3,5-Dimethyl-piperidin-1-yl)-2-oxo-ethyl]-6-hydroxy-3-methanesulfonylmethyl-5-oxo-1,5-dihydro-imidazo[1,2-a]pyrimidine-7-carboxylic acid 3,4-dichloro-benzylamide]
EC50 [7, 10]: < 500 nM

CC1CC(C)CN(C(=O)Cn2cc(CS(C)(=O)=O)n3c(=O)c(O)c(C(=O)NCc4ccc(F)cc4S(=O)(=O)N(C)C)nc23)C1 (stereo not shown) [Example 194, 1-[2-(3,5-Dimethyl-piperidin-1-yl)-2-oxo-ethyl]-6-hydroxy-3-methanesulfonylmethyl-5-oxo-1,5-dihydro-imidazo[1,2-a]pyrimidine-7-carboxylic acid 2-dimethylsulfamoyl-4-fluoro-benzylamide]
EC50 [7, 10]: < 500 nM

Reference: patent US8431581B2, “Imidazopyrimidines and uses thereof” (priority 2008, dated 2013)
